Target: SARS-CoV-2-RBD (insect-derived) (Severe acute respiratory syndrome coronavirus 2, UniProt P0DTC2, F486P)

## TFLDKFNHEAED [SEQ ID NO: 15]
  binding to SARS-CoV-2-RBD: did not bind

Reference: patent US20230152316A1, “SARS-COV2 SPIKE PROTEIN BINDING PEPTIDES” (priority 2020, published 2023)
